This note sets out measurements from ChEMBL document CHEMBL1122939, “N6-cycloalkyladenosines. Potent, A1-selective adenosine agonists” (J Med Chem, 1985).

SMILES strings stand for the structures.

Data set [1] can be described thus: Lipophilicity value was evaluated. The class given is physicochemical. The conditions noted are these: octanol/water.
For another data set, the target named is T1, Adenosine receptor A1 (Rattus norvegicus, UniProt P25099).
T1 sequence (P25099 whole entry): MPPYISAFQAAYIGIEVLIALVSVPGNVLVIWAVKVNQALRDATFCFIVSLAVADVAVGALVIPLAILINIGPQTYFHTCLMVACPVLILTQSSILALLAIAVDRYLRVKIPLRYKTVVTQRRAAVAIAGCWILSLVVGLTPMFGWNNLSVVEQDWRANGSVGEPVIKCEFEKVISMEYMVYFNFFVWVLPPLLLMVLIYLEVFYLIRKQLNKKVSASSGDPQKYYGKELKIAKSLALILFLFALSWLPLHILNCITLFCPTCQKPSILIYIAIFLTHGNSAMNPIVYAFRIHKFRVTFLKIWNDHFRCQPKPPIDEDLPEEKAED

The next data set addresses Adenosine A2 receptor (Rattus norvegicus, UniProt P29276+P30543).

Description for Adenosine A2 receptor: Displacement of [3H]-NECA from adenosine A2 receptor of rat striatal membrane

Regarding `OC[C@H]1OC(n2cnc3c(NC4CCCCCCCCCCC4)ncnc32)[C@H](O)[C@@H]1O` (some centres undefined), the Log k in data set [1] is reported as 4.52. Further, the results for the Ki at Adenosine receptor A1 and at Adenosine A2 receptor were 5390 nM and 47700 nM, respectively.
Regarding `Cn1c(=O)[nH]c2c(ncn2C2O[C@H](CO)[C@@H](O)[C@H]2O)c1=N` (some centres undefined), the Ki on Adenosine receptor A1 came to 144 nM; at Adenosine A2 receptor, 3250 nM.
With `OC[C@H]1O[C@@H](n2cnc3c(NC4CCCCCCC4)ncnc32)[C@H](O)[C@@H]1O`, in data set [1], the Log k is listed as 2.9. Moreover, the Ki was 4.03 nM on Adenosine receptor A1 and 2450 nM at Adenosine A2 receptor.
The compound `OC[C@H]1O[C@@H](n2cnc3c(NC4CCCCC4)ncnc32)[C@H](O)[C@@H]1O` displayed a Log k in data set [1] of 1.6.
As to `Nc1nc(Cl)nc2c1ncn2[C@@H]1O[C@H](CO)[C@@H](O)[C@H]1O`, the Ki at Adenosine receptor A1 worked out at 8.74 nM.
As for `OC[C@H]1O[C@@H](n2cnc3c(NC4CCCCCC4)ncnc32)[C@H](O)[C@@H]1O`, in data set [1], the Log k came to 2.4. The Ki on Adenosine receptor A1 was found to be 2.79 nM; at Adenosine A2 receptor it was 1690 nM.
With `OC[C@H]1OC(n2cnc3c(NC4CCCCCCCCC4)ncnc32)[C@H](O)[C@@H]1O` (some centres undefined), the Log k in data set [1] is 3.62. Besides, the values for the Ki at Adenosine receptor A1 and on Adenosine A2 receptor were 100 nM and 5190 nM, respectively.
In the same order, the values of `OC[C@H]1O[C@@H](n2cnc3c(NC4CC4)ncnc32)[C@H](O)[C@@H]1O` are 0.53, 319 nM and 1240 nM.
In data set [1], `OC[C@H]1O[C@@H](n2cnc3c(NC4CCCC4)ncnc32)[C@H](O)[C@@H]1O` [N6-CYCLOPENTYLADENOSINE] showed a Log k of 1.56. The compound also returned a Ki at Adenosine A2 receptor of 462 nM.
In turn, `OC[C@H]1O[C@@H](n2cnc3c(NC4CCC4)ncnc32)[C@H](O)[C@@H]1O` came in with a Log k in data set [1] of 1.22. Also, the Ki on Adenosine receptor A1 turned out to be 0.777 nM; at Adenosine A2 receptor it was 263 nM.

Usually Ki stands for a measure of affinity in units of concentration, obtained from inhibition or displacement. A low value points to higher affinity.
